SMILES	melting point [°C]
CC1(C)C(C=Cc2cc([N+](=O)[O-])cc([N+](=O)[O-])c2[O-])=[N+](Cc2ccccc2)c2ccccc21	244 to 246
BrCc1nc2ccccc2nc1CBr	150 to 154
Cc1c2c(c(C)c3c1C(=O)C3)C(=O)C2	237 to 238
CC(C)Nc1nc(Cl)nc(NC(C)C)n1	213
COc1ccc(Br)cc1CC(NC(=O)OC(C)(C)C)C(=O)O (stereo not given)	132
O=Cc1c(Cl)ccc(Cl)c1Cl	86 to 89
CC(=O)C=Cc1oc2ccc([N+](=O)[O-])cc2c1-c1ccc(C)o1	178
Cc1nccn1-c1ccc(C#N)cc1	138 to 141
Brc1cc2c(cc1Br)Oc1cc(Br)c(Br)cc1O2	334
O=S(=O)(O)c1ccc(Cl)cc1	102
C=CCc1cc(C=O)c(O)c(OC)c1	48 to 52
O=[N+]([O-])c1cc(O)ccc1I	153 to 159
CC1CCC(C)(CNc2ccccc2)C1(C)C (stereo not given)	59
COc1nsc(Nc2ccc(Br)cc2)n1	237 to 239
Cc1cc(C(=O)CBr)ccc1Cl	56 to 57
O=C(C=Cc1ccc(OCCCl)cc1)c1ccc(OCCCl)cc1	83
C=CF	-160
Cn1ccc(=O)c2ccccc21	152
NC1C2CN(c3nc4c(cc3F)c(=O)c(C(=O)O)cn4-c3ccc(F)cc3F)CC12 (stereo not given)	246
O=C(Cl)c1ccc(Br)cc1F	25
Cc1nc(-c2cccc(CO)c2)no1	56 to 58
O=c1[nH]c2ccccc2n1-c1ccccc1	207
Cn1nc(C(=O)Cl)cc1-c1ccccc1	80 to 82
CC(C)C[C@H](N)[C@@H](O)CC(=O)O	209
NC(=O)C(Cl)(Cl)Cl	142

SMILES	melting point [°C]
CCOP(=S)(OCC)SCC(=O)NC(C)C	28.5
CC1c2ccccc2-c2ccccc21	46.5
Cn1c(=O)c(C2=NNC(=O)C2=NNc2ccncc2)c(O)c2ccccc21	294
N#Cc1ccc(S(=O)(=O)C(F)(F)F)cc1	90
O=C1CC(=O)CC(c2ccccc2)C1	188
COC(=O)C(=O)C1CCc2cc(OC)ccc2C1=O (stereo not given)	71
O=C(Nc1ccccc1)OCc1ccccc1[N+](=O)[O-]	141
CC(C)(C)S(=O)(=O)CC(N)=S	184 to 186
CCOc1c(N2CCOCC2)cnn(C)c1=O	90
Brc1cccc2cn[nH]c12	128
Ic1ccc(I)c(I)c1I	136
COc1ccccc1-c1nnc2n1NC(c1ccco1)S2 (stereo not given)	226
Brc1nc2ccccc2s1	40 to 42
CC(=O)Nc1ccccc1CCCCc1ccccc1NC(C)=O	235 to 237
Nc1cccc(-c2cncnc2)c1	163 to 166
C[Si](C)(C1C=Cc2ccccc21)C1C=Cc2ccccc21 (stereo not given)	85 to 87
O=C1C=C(NCNc2ccccn2)C(=O)c2ccccc21	134 to 136
O=[N+]([O-])c1ncccc1O	71
COC(=O)c1ccccn1	18.7
Cc1cc(C(F)(F)F)n2nc(N)c(/N=N/c3cc(Cl)ccc3Cl)c2n1	215
CCCCCCCCC(=O)c1ccc(/N=N/c2ccc(OCC)cc2)cc1	63 to 108
N#CCCCCCN	-31.4
Cc1nc(-c2ccccc2)sc1C(=O)CBr	117 to 118
COc1cc(C(=O)NCCCCCC(=O)O)cc(OC)c1OC	121
CC1(C)OC2C(=O)OC(CBr)C2O1 (stereo not given)	85 to 89

SMILES	melting point [°C]
COc1ccc2cc(C(O)C(C)O)ccc2c1 (stereo not given)	115
CN1CCc2cc3c(cc2C1)OCO3	66
O=C(O)c1ccc2c(c1)OC(F)(F)O2	156
COc1ccc(C2Nn3c(nnc3-c3cccnc3)S2)cc1 (stereo not given)	219
CN1CCN(Cc2cccc(I)c2)CC1	81 to 83
FC(F)(F)c1cccnc1Br	38
S=C(Oc1ccccc1)Oc1ccccc1	106
CCc1nc(NC(=O)NS(=O)(=O)c2cccs2)nc(Cl)c1C	187 to 188
O=C(C(=O)c1ccc(Cl)cc1)c1ccccc1	67
CC1(C)CC(=O)[C@]2(C)C=C[C@H]1N(c1ccccc1)O2	56.9
Cc1cnc(NS(=O)(=O)c2ccc(N)cc2)nc1	262
O=[N+]([O-])c1ccc(Nc2ccc(O)cc2)c([N+](=O)[O-])c1	194
CN(C1=NC(=Cc2ccccc2)C(=O)N1c1ccccc1)c1ccccc1	207
O=C(CBr)c1ccc(OC(F)F)cc1	63 to 65
Cc1ccc(OCCCCBr)cc1	40
COC1(OC)CC[C@]2(C)[C@H]3CC[C@]4(C)CCC[C@@]4(O)[C@@H]3CC[C@@]2(C)C1	146 to 147
OCCOCCOCCOCCOCCOCCO	6
O=C(Nc1ccc(N=Nc2ccc(N=Nc3ccc(NC(=O)c4ccccc4)cc3)cc2)cc1)c1ccccc1	336
CC1=C(C(=O)OCc2ccccc2)C(c2ccco2)NC(=O)N1 (stereo not given)	195
CN(C)c1ccc(N=c2cc(-c3ccccc3)cc(-c3ccccc3)s2)cc1	148
COC(=O)c1sccc1N=C=S	57 to 59
CC(=O)NC(=O)NC(C)=O	154
Oc1c(Cl)c(O)c(Cl)c(O)c1Cl	136
Nc1c(Br)cc(F)c(F)c1F	58 to 60
O=C1CCCCCCN1	36.5

SMILES	melting point [°C]
OC(CCN1CCCC1)(c1ccccc1)C1CCCCC1 (stereo not given)	86
Nc1ccc(-c2cn3c(n2)SCC3)cc1	225 to 226
O=[N+]([O-])c1cc([N+](=O)[O-])c(C(Cl)=Cc2ccccc2)cc1/C=C\c1ccccc1	191
CC(=NOCc1cccc(C(=O)O)c1)c1ccc(Cl)cc1	154 to 157
CC(CC/C(=N/O)C(C)C)CC(=O)O (stereo not given)	186 to 187
CN(C)CCOC1=Cc2ccccc2Sc2ccc(Cl)cc21	90
CC(C)(Oc1ccc(CCNC(=O)c2ccc(Cl)cc2)cc1)C(=O)O	186
COC(=O)c1c(C)cc(=O)oc1C	66 to 70
CC(CC(C)(C)C1CCCCC1)C1CCCCC1 (stereo not given)	-30
O=Cc1cc(O)ccc1I	125 to 126
CCOC=C(C#N)S(=O)(=O)C(C)(C)C	103 to 105
Oc1ccc2c(c1)Cc1ccccc1-2	168
CC1=Nc2ccccc2Nc2c1c(=O)n(-c1ccccc1)c1ccccc21	297 to 299
CC(C)(C)NC(=O)C(C(F)(F)F)C(F)(F)F	201
CN1CCN(c2ccccc2N)CC1	101 to 102
COc1cc(/C=N/N=C/c2ccc(OCc3ccccc3)c(OC)c2)ccc1OCc1ccccc1	216
COc1ccc(C(=O)Oc2ccc(C(=O)/C=C/c3ccc4c(c3)OCO4)cc2)cc1	169
COc1ccc(-c2csnn2)cc1	89 to 93
CC(=O)CCc1oc2c(I)cc(I)cc2c1-c1ccc(C)o1	192
Clc1cc2oc3ccc(Cl)c(Cl)c3c2cc1Cl	210
CC(C(C)P(c1ccccc1)c1ccccc1)P(c1ccccc1)c1ccccc1 (stereo not given)	104 to 109
COC(=O)c1ccc(OC)nc1	51
Cc1cc(-c2cc(C)c(N)c(C)c2)cc(C)c1N	170
COC(=O)c1ccc(NS(=O)(=O)c2ccc(C)cc2)c(NS(=O)(=O)c2ccc(C)cc2)c1	180 to 182
Cc1ccc(S(=O)(=O)NC(=O)NC2CCCCC2)cc1	175

SMILES	melting point [°C]
CC1(C)CC(=O)C(=Cc2ccc(-c3ccc(Cl)cc3)o2)C(=O)C1	206
Cn1c2ccccc2n2c(=O)c3cccnc3c(C#N)c12	292 to 293
O=C(O)c1ccccc1Cc1ccccc1	118
CCC(=O)C1CCCCC1C(C)(C)C(=O)O (stereo not given)	115
N#Cc1cc2ccccc2c2ccccc12	111
CC(C)OC(=O)COc1ccc(Cl)cc1Cl	5
CCOc1ccc(-c2nnc3n2NC(c2ccccc2OC)S3)cc1 (stereo not given)	194
Cc1oc(-c2ccccc2)nc1CN	42 to 46
CC(=O)c1cccc(N=C=S)c1	26 to 28
O=C(OCc1ccccc1)c1cnc(Cl)nc1C(F)(F)F	45 to 47
O=C(O)c1cc(F)cc(C(F)(F)F)c1	104 to 108
CCOC(=O)C(C#N)=C(SCc1ccccc1)SCc1ccccc1	82
O=C(Nc1ccc2nn(C3CCCCC3)nc2c1)c1ccccc1	212
COC(=O)c1sccc1S(=O)(=O)NC(=O)Nc1nc(C)nc(OC)n1	176
Cc1cccc(C)c1N(C(=O)CCl)C1CCOC1=O (stereo not given)	146
O=C(Cl)c1ccc(N2CCOCC2)nc1	158 to 159
COc1cc2c(c(O)c1OC)CCN(C)C2C (stereo not given)	152
CC(C)=CCCC(C)=CC=CC(C)=CC=CC(C)=CC=CC=C(C)C=CC=C(C)C=CC1C(C)=CCCC1(C)C (stereo not given)	140
O=C(O)c1ccc(Cl)cc1O	210
Cc1nc(-c2ccccc2)sc1C=O	111 to 113
O=S(=O)(Cl)c1sccc1Br	39 to 41.5
Cc1ccc(N=C=S)c([N+](=O)[O-])c1	65
ClC#CCl	-66
Cc1ccc(OP(=O)(Oc2ccc(C)c(C)c2)Oc2ccc(C)c(C)c2)cc1C	72
NC(CS(=O)(=O)Cc1ccc(F)cc1)=NO	182 to 185
